{
  "source": "patent US20090053237A1",
  "about": "“USE OF PENICILLIN-BINDING PROTEINS OR POLYNUCLEOTIDES OR ANTIBODIES THEREOF FOR PREVENTING OR TREATING BACTERIAL INFECTIONS” (priority 2005, published 2009)",
  "format_in_all_cases": "cell-based",
  "key": {"[1]": {"test_system": "Neisseria meningitidis strain LNP8013", "test": "MIC of penicillin G, strain LNP8013", "settings": "strain LNP8013, serogroup C", "source_text": "(§1) Features of all Neisseria meningitidis strains for which a recombinant Neisseria meningitidis PBP2 fragment lacking the N-terminal transmembrane domain was produced are listed in following Table 3."}, "[2]": {"test_system": "Neisseria meningitidis strain LNP16454", "test": "MIC of penicillin G, strain LNP16454", "settings": "strain LNP16454, serogroup C", "source_text": "as §1"}, "[3]": {"test_system": "Neisseria meningitidis strain LNP16504", "test": "MIC of penicillin G, strain LNP16504", "settings": "strain LNP16504, serogroup B", "source_text": "as §1"}, "[4]": {"test_system": "Neisseria meningitidis strain LNP17041", "test": "MIC of penicillin G, strain LNP17041", "settings": "strain LNP17041, serogroup B", "source_text": "as §1"}, "[5]": {"test_system": "Neisseria meningitidis strain LNP17723", "test": "MIC of penicillin G, strain LNP17723", "settings": "strain LNP17723, serogroup C", "source_text": "as §1"}, "[6]": {"test_system": "Neisseria meningitidis strain TR TH-41", "test": "MIC of penicillin G, strain TR TH-41", "settings": "strain TR TH-41, serogroup C", "source_text": "as §1"}, "[7]": {"test_system": "Neisseria meningitidis strain TR 16454", "test": "MIC of penicillin G, strain TR 16454", "settings": "strain TR 16454, serogroup C", "source_text": "as §1"}, "[8]": {"test_system": "Neisseria meningitidis strain TR 16504", "test": "MIC of penicillin G, strain TR 16504", "settings": "strain TR 16504, serogroup C", "source_text": "as §1"}},
  "data": [
    {"smiles": "CC1(C)S[C@@H]2[C@H](NC(=O)Cc3ccccc3)C(=O)N2[C@H]1C(=O)O", "note": "[Penicillin G]", "values": [
      {"measurement": "MIC Penicillin G", "setting": "[1]", "value": 0.094, "unit": "µg/mL"},
      {"measurement": "MIC Penicillin G", "setting": "[2]", "value": 1, "unit": "µg/mL"},
      {"measurement": "MIC Penicillin G", "setting": "[3]", "value": 0.25, "unit": "µg/mL"},
      {"measurement": "MIC Penicillin G", "setting": "[4]", "value": 0.5, "unit": "µg/mL"},
      {"measurement": "MIC Penicillin G", "setting": "[5]", "value": 0.75, "unit": "µg/mL"},
      {"measurement": "MIC Penicillin G", "setting": "[6]", "value": 0.5, "unit": "µg/mL"},
      {"measurement": "MIC Penicillin G", "setting": "[7]", "value": 0.5, "unit": "µg/mL"},
      {"measurement": "MIC Penicillin G", "setting": "[8]", "value": 0.38, "unit": "µg/mL"}
    ]}
  ]
}
